Source: ChEMBL document CHEMBL2390818, “Peripherally acting novel lipo-endomorphin-1 peptides in neuropathic pain without producing constipation” (Bioorg Med Chem, 2013)
Activity calls are given as the source filed them. Peptide text beside a SMILES is read from it.

Experiments:
Rattus norvegicus [1] = experiment: Antiallodynic activity in iv dosed Sprague-Dawley rat chronic constriction injury model assessed as change in ipsilateral hindpaw withdrawal threshold administered as single bolus dose separated by 2 to 3 days wash-out period; format: functional
Rattus norvegicus [2] = experiment: Antiallodynic activity in Sprague-Dawley rat chronic constriction injury model assessed as change in ipsilateral hindpaw withdrawal threshold at 0.16 to 16 umol/kg, iv administered as single bolus dose separated by 2 to 3 days wash-out period; format: functional, organism-based
Rattus norvegicus [3] = experiment: Antinociceptive activity in contralateral hindpaw of Sprague-Dawley rat chronic constriction injury model at 5 umol/kg, iv administered as single bolus dose separated by 2 to 3 days wash-out period; format: functional, organism-based
Rattus norvegicus [4] = experiment: Toxicity in Sprague-Dawley rat castor oil-induced diarrhoea model assessed as induction of constipation at 1.6 to 16 umol/kg, iv administered as single bolus dose incubated for 5 mins prior to castor oil-challenge measured after 8 hrs; format: organism-based; settings: in vivo
Rattus norvegicus [5] = experiment: Toxicity in Sprague-Dawley rat assessed as induction of constipation measured as gastrointestinal propulsion rate at 16 umol/kg, iv administered as single bolus dose prior to aqueous activated charcoal suspension treatment measured after 1 hr (reference value: 65.3 +/- 3.1%); format: organism-based; settings: in vivo
Rattus norvegicus [6] = experiment: Antiallodynic activity in iv dosed Sprague-Dawley rat chronic constriction injury model assessed as change in ipsilateral hindpaw withdrawal threshold administered as single bolus dose separated by 2 to 3 days wash-out period measured at 15 mins to 2 hrs post dose; format: functional, organism-based
Rattus norvegicus [7] = experiment: Antiallodynic activity in iv dosed Sprague-Dawley rat chronic constriction injury model assessed as change in ipsilateral hindpaw withdrawal threshold administered as single bolus dose; format: functional
Rattus norvegicus [8] = experiment: Antiallodynic activity in Sprague-Dawley rat chronic constriction injury model assessed as change in ipsilateral hindpaw withdrawal threshold at 0.5 to 5 umol/kg, iv administered as single bolus dose; format: functional, organism-based
Rattus norvegicus [9] = experiment: Antiallodynic activity in Sprague-Dawley rat chronic constriction injury model assessed as change in ipsilateral hindpaw withdrawal threshold at 0.5 umol/kg, iv administered as single bolus dose separated by 2 to 3 days wash-out period; format: functional, organism-based
Rattus norvegicus [10] = experiment: Toxicity in Sprague-Dawley rat assessed as induction of respiratory depression measured as change in hypercapnia-induced stimulation of minute ventilation at 1.6 umol/kg, iv administered as single bolus dose after 0.5 to 2 hrs; format: organism-based; settings: in vivo

Compound | ED50 (Rattus norvegicus [1]) [µmol/kg] | Activity (Rattus norvegicus [2]) | Activity (Rattus norvegicus [3]) | Activity (Rattus norvegicus [6]) | Activity (Rattus norvegicus [9]) | further results
CN1CC[C@]23c4c5ccc(O)c4O[C@H]2[C@@H](O)C=C[C@H]3[C@H]1C5 | 2.64 |  |  |  |  | 
Cc1cc(O)cc(C)c1C[C@H](N)C(=O)N1CCC[C@H]1C(=O)N[C@@H](Cc1c[nH]c2ccccc12)C(=O)N[C@@H](Cc1ccccc1)C(N)=O |  | inactive |  |  |  | 
NC(=O)[C@H](Cc1ccccc1)NC(=O)[C@H](Cc1c[nH]c2ccccc12)NC(=O)[C@@H]1CCCN1C(=O)[C@@H](N)Cc1ccc(O)cc1 |  | inactive |  |  |  | 
CCCCCCC(N)C(=O)N[C@@H](Cc1ccc(O)cc1)C(=O)N1CCC[C@H]1C(=O)N[C@@H](Cc1c[nH]c2ccccc12)C(=O)N[C@@H](Cc1ccccc1)C(N)=O (stereo partly specified) (HELM PEPTIDE1{[CCCCCCC(N)C(=O)[*:2]].Y.P.W.F.[am]}$$$$V2.0) | 6.58 |  | inactive | Dose-dependent effect | Active | Activity (Rattus norvegicus [4]): Non-toxic; Activity (Rattus norvegicus [5]): 77%; ED50 (Rattus norvegicus [7]): 6.64 µmol/kg; Activity (Rattus norvegicus [8]): Active; Activity (Rattus norvegicus [10]): Non-toxic
CCCCCCC(N)C(=O)N[C@@H](Cc1c(C)cc(O)cc1C)C(=O)N1CCC[C@H]1C(=O)N[C@@H](Cc1c[nH]c2ccccc12)C(=O)N[C@@H](Cc1ccccc1)C(N)=O (stereo partly specified) (HELM PEPTIDE1{[CCCCCCC(N)C(=O)[*:2]].[Cc1cc(O)cc(C)c1C[C@H](N[*:1])C(=O)[*:2]].P.W.F.[am]}$$$$V2.0) | 6.18 |  | inactive | Dose-dependent effect | Active | 
